Earlier results, collected in patent US11400063B2, “Early administration of low-dose colchicine after myocardial infarction” (INSTITUT DE CARDIOLOGIE DE MONTREAL, priority 2019, dated 2022).

Assays:
[1] = CIRT; cited from earlier work
stable coronary disease = conditions: CANTOS; cited from earlier work

Molecule | cardiovascular outcomes or plasma markers of inflammation [1] | incidence of fatal infections (stable coronary disease) | lower risk of cardiovascular events than with placebo (stable coronary disease)
CN(Cc1cnc2nc(N)nc(N)c2n1)c1ccc(C(=O)N[C@@H](CCC(=O)O)C(=O)O)cc1 [methotrexate] | did not affect | – | –
canakinumab: injectable monoclonal antibody inhibiting interleukin-1β | – | slightly higher incidence | 15%
